The results in this text go back to patent US20070135431A1, “INHIBITORS OF HISTONE DEACETYLASE FOR THE TREATMENT OF DISEASE” (KALYPSYS, INC, priority 2005, published 2007).

One test has as its system HDAC in cells. Kind of test: Cellular HDAC inhibition (cellular histone hyperacetylation / cytotoxicity assays; Table 1 only says Cellular IC50). It counts as cell-based. The settings on record: transformed cell lines (e.g. HeLa, A549, MCF-7); cell line not given. The protocol:
2) Cellular Histone Hyperacetylation Assays:
These two secondary assays evaluate a compound's ability to inhibit HDAC in cells by measuring cellular histone acetylation levels. The cytoblot facilitates quantitative EC50 information for cellular HDAC inhibition. Transformed cell lines (e.g. HeLa, A549, MCF-7) are cultured under standard media and culture conditions prior to plating.
Cells (approx. 2,500/well) are allowed to adhere 10-24 hours to wells of a 384-well Greiner PS assay plate in media containing 1-5% serum. Cells are treated with appropriate compound and specific concentrations for 0 to 24 hours. Cells are washed once with PBS (60 μL) and then fixed (95% ethanol, 5% acetic acid or 2% PFA) for 1 minute at RT (30 μL). Cells are blocked with 1% BSA for 1 hour and washed and stained with antibody (e.g. anti-Acetylated Histone H3, Upstate Biotechnology), followed by washing and incubation with an appropriate secondary antibody conjugated to HRP or fluorophore. For luminescence assays, signal is generated using Luminol substrate (Santa Cruz Biotechnology) and detected using an Aquest plate reader (Molecular Devices).
3) Differential Cytotoxicity Assay:
HDAC inhibitors display differential cytotoxicity toward certain transformed cell lines. Cells are cultured according to standard ATCC recommended conditions that are appropriate to each cell type. Compounds were tested for their ability to kill different cell types (normal and transformed) using the ATPlite luminescence ATP detection assay system (Perkin Elmer). Assays are run in either 384-well or 1536-well Greiner PS plates. Cells (30 μL or 5 μL, respectively) are dispensed using either multichannel pipette for 384-well plates, or proprietary Kalypsys bulk liquid dispenser for 1536-well plates. Compounds added using proprietary pin-transfer device (500 nL or 5 nL) and incubated 5 to 30 hours prior to analysis. Luminescence is measured using Aquest plate reader (Molecular Devices).

In the next test the test system is HDAC. Description: In vitro HDAC-inhibition assay (Fluor de Lys fluorescent activity assay). The test is classed as biochemical. The settings on record: HDAC enzyme source (e.g. nuclear extract or immunopurified HDAC complexes), Fluor de Lys substrate, 30 minutes RT. The method, then:
1) In vitro HDAC-inhibition Assay:
This assay measures a compound's ability to inhibit acetyl-lysine deacetylation in vitro and was used as both a primary screening method as well as for IC50 determinations of confirmed inhibitors. The assay is performed in vitro using an HDAC enzyme source (e.g. partially purified nuclear extract or immunopurified HDAC complexes) and a proprietary fluorescent substrate/developer system (HDAC Quantizyme Fluor de Lys Fluorescent Activity Assay, BIOMOL). The assay is run in 1,536-well Greiner white-bottom plates using the following volumes and order of addition: • Step 1: Enzyme (2.5 μL) source added to plate (from refrigerated container) • Step 2: Compounds (50 nL) added with pin transfer device • Step 3: Fluor de Lys (2.5 μL) substrate added, incubate at RT, 30 minutes • Step 4: Developer (5 μL) solution is added (containing TSA), to stop reaction • Step 5: Plate Reader—data collection
The deacetylated fluorophore is excited with 360 nm light and the emitted light (460 nm) is detected on an automated fluorometric plate reader (Aquest, Molecular Devices).

For the molecule `CC(=O)SCC(=O)c1ccc(NS(=O)(=O)c2ccc(OCCCc3ccccn3)cc2)cc1` [Example 17, Thioacetic acid S-(2-oxo-2-{4-[4-(3-pyridin-2-yl-propoxy)-benzenesulfonylamino]-phenyl}-ethyl) ester], the IC50 with HDAC in cells and in the test with HDAC was no more than 1 µM each time.

For the molecule `CC(=O)SCC(=O)c1ccc(NS(=O)(=O)c2ccc(OCCc3ccccn3)cc2)cc1` [Example 21, Thioacetic acid S-(2-oxo-2-{4-[4-(2-pyridin-2-yl-ethoxy)-benzenesulfonylamino]-phenyl}-ethyl) ester], the IC50 in the test on HDAC in cells and with HDAC was no more than 1 µM throughout.

Regarding `CC(=O)SCC(=O)c1ccc(NS(=O)(=O)c2ccc(OC3CCN(C)CC3)cc2)cc1` [Example 10, Thioacetic acid S-(2-{4-[4-(1-methyl-piperidin-4-yloxy)-benzenesulfonylamino]-phenyl}-2-oxo-ethyl) ester], the IC50 in the test with HDAC in cells and with HDAC was no more than 1 µM throughout.

Turning to `CC(=O)SCC(=O)c1ccc(NS(=O)(=O)c2ccc(OCCCc3cccnc3)cc2)cc1` [Example 16, Thioacetic acid S-(2-oxo-2-{4-[4-(3-pyridin-3-yl-propoxy)-benzenesulfonylamino]-phenyl}-ethyl) ester], the IC50 in the test on HDAC in cells was greater than 1 µM; in the test on HDAC, no more than 1 µM.

Take `CC(=O)SCC(=O)c1ccc(NS(=O)(=O)c2ccc(OCCN3CCCC3)cc2)nc1` [Example 26, Thioacetic acid S-(2-oxo-2-{6-[4-(2-pyrrolidin-1-yl-ethoxy)-benzenesulfonylamino]-pyridin-3-yl}-ethyl) ester]: the IC50 with HDAC in cells and in the test on HDAC was no more than 1 µM in each case.

`CC(=O)SCC(=O)c1ccc(NS(=O)(=O)c2ccc(OCCCCc3ccccc3)cc2)cc1` [Example 13, Thioacetic acid S-(2-oxo-2-{4-[4-(4-phenyl-butoxy)-benzenesulfonylamino]-phenyl}-ethyl) ester]: the IC50 in the test with HDAC in cells and in the test with HDAC was no more than 1 µM each time.

`CC(=O)SCC(=O)c1ccc(NS(=O)(=O)c2ccc(OC(C)CN3CCCCC3)cc2)nc1` (stereo not drawn) [Example 32, Thioacetic acid S-(2-{6-[4-(1-methyl-2-piperidin-1-yl-ethoxy)-benzenesulfonylamino]-pyridin-3-yl}-2-oxo-ethyl) ester]: the half-inhibitory concentration (IC50) in the test with HDAC in cells and in the test with HDAC was no more than 1 µM throughout.

As for `CC(=O)SCC(=O)c1ccc(NS(=O)(=O)c2ccc(OCc3ccccn3)cc2)cc1` [Example 15, Thioacetic acid S-(2-oxo-2-{4-[4-(pyridin-2-ylmethoxy)-benzenesulfonylamino]-phenyl}-ethyl) ester], the IC50 in the test with HDAC in cells and in the test with HDAC was no more than 1 µM in each case.

Regarding `CC(=O)SCC(=O)c1ccc(NS(=O)(=O)c2ccc(OCC3CCCN(C)C3)cc2)nc1` (stereo not drawn) [Example 31, Thioacetic acid S-(2-{6-[4-(1-methyl-piperidin-3-ylmethoxy)-benzenesulfonylamino]-pyridin-3-yl}-2-oxo-ethyl) ester], the IC50 with HDAC in cells and with HDAC was no more than 1 µM each time.

In the case of `CC(=O)SCC(=O)c1ccc(NS(=O)(=O)c2ccc(NCc3ccccn3)cc2)cc1` [Example 08, Thioacetic acid S-[2-oxo-2-(4-{4-[(pyridin-2-ylmethyl)-amino]-benzenesulfonylamino}-phenyl)-ethyl] ester], the IC50 in the test on HDAC in cells and in the test on HDAC was no more than 1 µM each time.

Turning to `CC(=O)SCC(=O)c1ccc(NS(=O)(=O)c2ccc(OCCCN3CCCCC3)cc2)cc1` [Example 22, Thioacetic acid S-(2-oxo-2-{4-[4-(3-piperidin-1-yl-propoxy)-benzenesulfonylamino]-phenyl}-ethyl) ester], the IC50 in the test on HDAC in cells and with HDAC was no more than 1 µM throughout.

Take `CC(=O)SCC(=O)c1ccc(NS(=O)(=O)c2ccc(OCc3cccnc3)cc2)nc1` [Example 27, Thioacetic acid S-(2-oxo-2-{6-[4-(pyridin-3-ylmethoxy)-benzenesulfonylamino]-pyridin-3-yl}-ethyl) ester]: the IC50 with HDAC in cells and with HDAC was no more than 1 µM in each case.

Consider `CC(=O)SCC(=O)c1ccc(NS(=O)(=O)c2ccc(OCCc3ccccn3)cc2)nc1` [Example 18, Thioacetic acid S-(2-oxo-2-{6-[4-(2-pyridin-2-yl-ethoxy)-benzenesulfonylamino]-pyridin-3-yl}-ethyl) ester], for which the IC50 in the test with HDAC in cells and in the test with HDAC was no more than 1 µM each time.

As for `CC(=O)SCC(=O)c1ccc(NS(=O)(=O)c2ccc(CN3CCOCC3)cc2)cc1` [Example 07, Thioacetic acid S-{2-[4-(4-morpholin-4-ylmethyl-benzenesulfonylamino)-phenyl]-2-oxo-ethyl} ester], the IC50 in the test on HDAC in cells and in the test on HDAC was no more than 1 µM in each case.

With `CC(=O)SCC(=O)c1ccc(NS(=O)(=O)c2ccc(OCCCN3CCOCC3)cc2)cc1` [Example 12, Thioacetic acid S-(2-{4-[4-(3-morpholin-4-yl-propoxy)-benzenesulfonylamino]-phenyl}-2-oxo-ethyl) ester], the IC50 with HDAC in cells and in the test on HDAC was no more than 1 µM throughout.

For the molecule `CC(=O)SCC(=O)c1ccc(NS(=O)(=O)c2ccc(OCCN3CCCCC3)cc2)nc1` [Example 24, Thioacetic acid S-(2-oxo-2-{6-[4-(2-piperidin-1-yl-ethoxy)-benzenesulfonylamino]-pyridin-3-yl}-ethyl) ester], the IC50 in the test with HDAC in cells and with HDAC was no more than 1 µM in each case.

On to `CC(=O)SCC(=O)c1ccc(NS(=O)(=O)c2ccc(OCCCCc3ccccc3)cc2)nc1` [Example 14, Thioacetic acid S-(2-oxo-2-{6-[4-(4-phenyl-butoxy)-benzenesulfonylamino]-pyridin-3-yl}-ethyl) ester], for which the IC50 with HDAC in cells and in the test with HDAC was no more than 1 µM each time.

For the molecule `CC(=O)SCC(=O)c1ccc(NS(=O)(=O)c2ccc(Oc3ccccc3)cc2)cc1` [Example 03, Thioacetic acid S-{2-oxo-2-[4-(4-phenoxy-benzenesulfonylamino)-phenyl]-ethyl} ester], the half-maximal inhibitory concentration (IC50) in the test on HDAC in cells and in the test with HDAC was no more than 1 µM each time.

As usually defined, the IC50 is the concentration at which inhibition is half-maximal.
